US8697372B2, “Method for determining the binding of a given compound to a membrane receptor” (CIS Bio International, priority 2009, dated 2014)

Target: T1, Delta Opioid receptor implicated in the heterodimer with Dopamine D2 (Homo sapiens, UniProt P41143)
T1 construct: membrane-addressing signal peptide T8 (printed '18') (N); expressed in transfected cells; host or cells: HEK293T/17 cells, transient co-transfection
Type: binding
Settings: 3 nM red antagonist of the opioid receptor, D2 receptor labeled with HALO-Lumi4Tb, HEK293T cells, FIG. 10

T1 sequence (P41143 whole entry): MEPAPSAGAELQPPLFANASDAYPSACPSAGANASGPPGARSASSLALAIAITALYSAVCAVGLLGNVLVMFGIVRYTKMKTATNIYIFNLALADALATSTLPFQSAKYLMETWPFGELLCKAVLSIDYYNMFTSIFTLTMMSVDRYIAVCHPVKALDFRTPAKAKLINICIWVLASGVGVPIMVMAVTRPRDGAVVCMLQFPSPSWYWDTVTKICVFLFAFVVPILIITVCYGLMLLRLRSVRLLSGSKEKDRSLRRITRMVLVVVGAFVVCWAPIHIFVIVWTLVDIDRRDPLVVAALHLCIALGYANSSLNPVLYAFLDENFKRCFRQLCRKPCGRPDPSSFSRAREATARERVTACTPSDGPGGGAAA
T1 sequence (P14416 1-414 isoform P14416-2 partner): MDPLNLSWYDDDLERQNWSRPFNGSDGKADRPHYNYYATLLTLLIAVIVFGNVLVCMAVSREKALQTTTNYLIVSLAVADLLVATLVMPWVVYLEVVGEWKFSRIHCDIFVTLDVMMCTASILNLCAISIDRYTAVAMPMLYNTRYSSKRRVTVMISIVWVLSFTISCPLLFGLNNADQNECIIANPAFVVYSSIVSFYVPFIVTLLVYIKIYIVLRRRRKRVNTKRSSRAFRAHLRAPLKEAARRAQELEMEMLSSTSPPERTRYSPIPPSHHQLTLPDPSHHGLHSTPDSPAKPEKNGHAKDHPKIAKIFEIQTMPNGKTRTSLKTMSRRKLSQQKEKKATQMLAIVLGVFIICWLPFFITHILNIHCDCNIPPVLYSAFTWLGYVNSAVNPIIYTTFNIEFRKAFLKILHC

| Compound | Competition with the fluorescent reference ligand and binding to the heterodimers |
| --- | --- |
| C=CCN1C[C@H](C)N([C@@H](c2ccccc2)c2ccc(C(=O)N(CC)CC)cc2)C[C@H]1C [SNC-162] | compete with the fluorescent reference ligand and bind to the heterodimers |
| Oc1ccc2c3c1O[C@H]1c4[nH]c5ccccc5c4C[C@@]4(O)[C@@H](C2)N(CC2CC2)CC[C@]314 [Naltrindole] | compete with the fluorescent reference ligand and bind to the heterodimers |
